According to publication PMC7822874, “Chemoprotective antimalarials identified through quantitative high-throughput screening of Plasmodium blood and liver stage parasites” (Scientific Reports, 2021):
Where “and” joins values, the source holds several entries; their conditions need not be identical. Identical values can stand only once.

How the values were obtained:
[1] = test system: T1, Plasmodium falciparum Dd2-attB-ScDHODH (transgenic line expressing yeast DHODH), asexual blood stages; assay: organism not typed; design: replicate k of 3 (each line is one of three independent assays; the three lines of one compound and parasite line follow each other)
T1 construct: Dd2-attB-ScDHODH, the transgenic line that expresses yeast DHODH
Procedure: (§1) The overexpression of the fumarate-dependent yeast DHODH confers resistance to compounds that inhibit the parasite mETC, or the parasite DHODH enzyme that depends on ubiquinone provided by the parasite mETC. Assays were performed in three independent assays on a subset of compounds, and differences between the Dd2-attB parental line and the ScDHODH transgenic line were analyzed using two-sided Student’s t-tests.

[2] = test system: T2, Plasmodium falciparum Dd2-attB (parental line), asexual blood stages; assay: microbe, parasite or virus in culture; design: replicate k of 3 (each line is one of three independent assays; the three lines of one compound and parasite line follow each other); settings: n = 1; for Individual replicates / Log AC50 (M): 72 h; for AC50: Plasmodium falciparum, DD2, 72 h, read-out: Individual replicates / Log AC50 (converted)
T2 construct: Dd2-attB, the isogenic parental line
Procedure: as §1

[3] = 72 h; n = 1; read-out: Individual replicates / Log AC50 (converted)

SMILES	Individual replicates / Log AC50 (M) ([1]; 72 h, n = 1)	AC50 [1, 3] [µM]	Individual replicates / Log AC50 (M) [2]	AC50 [2] [µM]	Individual replicates / Log AC50 (M) ([1]; 72 h; n = 1)
O=C(Nc1ccccc1F)c1ccc(O)c2ncccc12 [NCGC00183800-01]	-5.2986 Log AC50 (M) and -5.0486 Log AC50 (M)	5.64	-5.1986 Log AC50 (M) and -5.2486 Log AC50 (M)	7.1	
CN(C)CCCNC(=O)c1ccc(-c2cc(O)c3ncccc3c2)cc1 [NCGC00183808-03]	-4.8486 Log AC50 (M)	12.6	-4.9486 Log AC50 (M) and -4.8986 Log AC50 (M)	14.2	
Oc1ccc(NCc2ccccc2F)c2cccnc12 [NCGC00184883-01]	-5.0986 Log AC50 (M)	12.6	-5.0986 Log AC50 (M) and -5.0486 Log AC50 (M)	12.6	
Oc1ccc(Nc2ccccc2F)c2cccnc12 [NCGC00184886-01]	-5.5986 Log AC50 (M)	4.48	-5.6486 Log AC50 (M) and -5.5486 Log AC50 (M)	3.56	
O=[S+]([O-])(Nc1ccc(O)c2ncccc12)c1ccccc1F [NCGC00184887-01]		14.2	-5.0986 Log AC50 (M) and -5.1486 Log AC50 (M)	14.2	
Oc1ccc(CNc2ccc(C(F)(F)F)cc2F)c2cccnc12 [NCGC00184889-01]		17.8		20	
Oc1ccc(CNc2ccccc2Cl)c2cccnc12 [NCGC00184891-01]	-4.7486 Log AC50 (M)	14.2	-4.6986 Log AC50 (M)	15.9	
Oc1ccc(CNc2cccc(F)c2)c2cccnc12 [NCGC00184892-01]	-4.7486 Log AC50 (M)	17.8	-4.7486 Log AC50 (M) and -4.8486 Log AC50 (M)	12.6	
Oc1ccc(CNc2ccc(F)cc2Cl)c2cccnc12 [NCGC00184893-01]	-4.7986 Log AC50 (M)	14.2	-4.7986 Log AC50 (M) and -4.8486 Log AC50 (M)	15.9	
Oc1ccc(CNc2ccc(F)cc2F)c2cccnc12 [NCGC00184894-01]	-4.8486 Log AC50 (M)	17.8	-4.9486 Log AC50 (M) and -5.0486 Log AC50 (M)	14.2	
Cc1ccc(NCc2ccc(O)c3ncccc23)c(F)c1 [NCGC00184895-01]	-4.7486 Log AC50 (M)	15.9	-4.7986 Log AC50 (M)	17.8	
Oc1ccc(CNc2ccccc2C(F)(F)F)c2cccnc12 [NCGC00184897-01]	-4.8486 Log AC50 (M) and -4.7486 Log AC50 (M)	15.9	-4.8986 Log AC50 (M) and -4.7986 Log AC50 (M)	12.6	
Oc1ccc(CNc2ccccn2)c2cccnc12 [NCGC00184898-01]	-4.7486 Log AC50 (M)	14.2	-4.7486 Log AC50 (M) and -4.6986 Log AC50 (M)	17.8	
Oc1ccc(/C=C/c2ccccc2)c2cccnc12 [NCGC00184900-01]	-5.1986 Log AC50 (M) and -4.7986 Log AC50 (M)		-5.2486 Log AC50 (M) and -5.2986 Log AC50 (M)	6.33	
Oc1ccc(-c2ccccc2F)c2cccnc12 [NCGC00184901-01]	-4.8486 Log AC50 (M) and -4.7986 Log AC50 (M)	14.2	-4.8486 Log AC50 (M) and -4.8986 Log AC50 (M)	15.9	
Oc1ccc(CCc2ccccc2)c2cccnc12 [NCGC00184902-01]	-4.8486 Log AC50 (M) and -5.1486 Log AC50 (M)	7.1	-5.2486 Log AC50 (M)	7.1	
Oc1ccc(/C=C/c2ccccc2F)c2cccnc12 [NCGC00184903-01]	-4.9986 Log AC50 (M) and -5.1986 Log AC50 (M)	6.33	-5.2486 Log AC50 (M) and -5.1486 Log AC50 (M)	6.33	
Oc1ccc(CCc2c(F)cccc2F)c2cccnc12 [NCGC00184906-01]	-5.0486 Log AC50 (M) and -5.1486 Log AC50 (M)	6.33	-5.2486 Log AC50 (M) and -5.2986 Log AC50 (M)	5.64	
Oc1ccc(Oc2ccccc2F)c2cccnc12 [NCGC00184907-01]	-4.8986 Log AC50 (M) and -4.9486 Log AC50 (M)	14.2	-4.9986 Log AC50 (M) and -5.0486 Log AC50 (M)	8.94	

SMILES	Individual replicates / Log AC50 (M) ([1]; 72 h, n = 1)	AC50 [1, 3] [µM]	Individual replicates / Log AC50 (M) [2]	AC50 [2] [µM]	Individual replicates / Log AC50 (M) ([1]; 72 h; n = 1)
Oc1ccc(CNCc2ccccc2F)c2cccnc12 [NCGC00184908-01]	-4.7486 Log AC50 (M) and -5.1486 Log AC50 (M) (2×)		-5.3986 Log AC50 (M) and -5.0486 Log AC50 (M) and -5.1986 Log AC50 (M)		
CN(C)c1cnc2c(O)ccc(C(=O)O)c2c1 [NCGC00189499-01]	-4.9486 Log AC50 (M)	14.2	-4.7486 Log AC50 (M)	14.2	
CN(C)CCCNC(=O)c1ccc(-c2cnc3c(O)cccc3c2)cc1 [NCGC00189502-01]	-5.0486 Log AC50 (M) and -4.8986 Log AC50 (M)	7.97	-4.9986 Log AC50 (M)	7.1	
CN1CCN(C(=O)c2ccc(-c3cnc4c(O)ccc(C(=O)O)c4c3)cc2)CC1 [NCGC00189504-01]	-4.7486 Log AC50 (M)	15.9	-4.7986 Log AC50 (M)	17.8	
COC(=O)c1ccc(O)c2ncc(-c3ccc(C(=O)N4CCN(C)CC4)cc3)cc12 [NCGC00189505-01]	-4.8986 Log AC50 (M) and -5.1486 Log AC50 (M)	6.33	-5.2486 Log AC50 (M) and -5.0486 Log AC50 (M)	5.03	
COC(=O)c1ccc(O)c2ncc(N(C)C)cc12 [NCGC00189506-01]	-5.0486 Log AC50 (M)	14.2	-5.0986 Log AC50 (M) and -5.1486 Log AC50 (M)	7.97	
O=C(c1ccc(-c2cnc3c(O)cccc3c2)cc1)N1CCNCC1 [NCGC00189507-01]	-4.7986 Log AC50 (M)	10	-4.8986 Log AC50 (M) and -4.9986 Log AC50 (M)	14.2	
O=C(O)c1ccc(O)c2ncc(-c3ccc(C(=O)N4CCNCC4)cc3)cc12 [NCGC00189508-01]	-4.7486 Log AC50 (M)	15.9	-4.7486 Log AC50 (M) and -4.7986 Log AC50 (M)	15.9	
COC(=O)c1ccc(O)c2ncc(-c3ccc(C(=O)N4CCNCC4)cc3)cc12 [NCGC00189509-01]	-4.9486 Log AC50 (M) and -5.0986 Log AC50 (M)	5.64	-5.0486 Log AC50 (M) and -5.1486 Log AC50 (M)	5.64	
COC(=O)c1ccc(O)c2ncc(-c3ccc(C(=O)NCCCN(C)C)cc3)cc12 [NCGC00189510-01]	-4.7986 Log AC50 (M) and -5.1486 Log AC50 (M)		-5.1486 Log AC50 (M) and -5.1986 Log AC50 (M)	7.97	
COc1ccc(NCc2ccc(O)c3ncccc23)nc1 [NCGC00241022-01]	-4.9486 Log AC50 (M)	11.3	-4.8486 Log AC50 (M)	20	
COc1ccnc(NCc2ccc(O)c3ncccc23)c1 [NCGC00241023-01]		12.6	-4.7986 Log AC50 (M)	15.9	-4.8986 Log AC50 (M)
Cc1cc(C)nc(NCc2ccc(O)c3ncccc23)c1 [NCGC00241026-01]	-4.8986 Log AC50 (M)	20	-4.7986 Log AC50 (M)	17.8	
Oc1ccc(CNc2cc(Cl)ccn2)c2cccnc12 [NCGC00241028-01]	-5.3486 Log AC50 (M) and -5.2986 Log AC50 (M)	6.33	-5.2986 Log AC50 (M)	5.03	
Oc1ccc(CNc2ccc3ccccc3n2)c2cccnc12 [NCGC00241029-01]	-4.8986 Log AC50 (M)	7.1	-4.8986 Log AC50 (M) and -5.0486 Log AC50 (M)	7.1	
COC(=O)c1ccnc(NCc2ccc(O)c3ncccc23)c1 [NCGC00241031-01]	-4.7986 Log AC50 (M)	12.6	-4.8986 Log AC50 (M) and -4.7486 Log AC50 (M)	15.9	
Cc1ccnc(NCc2ccc(O)c3ncccc23)c1 [NCGC00241032-01]	-5.0486 Log AC50 (M)	14.2	-4.8486 Log AC50 (M) and -4.7486 Log AC50 (M)	17.8	
O=C(O)c1ccc(O)c2ncc(N3CCOCC3)cc12 [NCGC00241036-02]		10		14.2	
COC(=O)c1ccc(O)c2ncc(NC3CCNCC3)cc12 [NCGC00241038-01]	-4.8986 Log AC50 (M) and -5.0986 Log AC50 (M)	7.1	-5.1986 Log AC50 (M) and -5.0486 Log AC50 (M)	8.94	
